Data published in patent US20180100859A1, “SURROGATE FUNCTIONAL BIOMARKER FOR SOLID TUMOR CANCER” (EUTROPICS PHARMACEUTICALS, INC., priority 2015, published 2018).

Key:
Format in all cases: cell-based
[1] = molecular target: Bcl-xL/Bim heterodimer in SKBR3 breast cancer cells (Homo sapiens, UniProt Q07817); test: Detection of Bcl-xL/Bim heterodimer with ANTI-HSBXB antibody in treated breast cancer cells, LI-COR imager
Experimental: ABT-263 is a pro-apoptotic compound that can be used on whole cells to disrupt BH3 mediated interactions. Disruption of these heterodimers in treated cells is detected as loss of ANTI-HSBXB signal. Here the cells were treated with various concentrations of ABT-263 for 10 hours at 37° C., then rinsed, fixed with 4% PFA, and incubated with ANTI-HSBXB (a Bcl-xL/Bim heterodimer-specific antibody). IRDye 800CW goat anti-mouse antibody was used to detect the heterodimer specific mouse monoclonal antibody, and IRDye 800CW Goat anti-rabbit antibody was used to detect a commercial Bcl-xL rabbit monoclonal antibody. Cell numbers were normalized by using CellTag 700 Stain.

Molm 13 cells = test: Mitochondrial (BH3) profiling, Bcl-xL priming; conditions: Molm 13 leukemia cell line, FIG. 3
DHL-6 cells = test: Mitochondrial (BH3) profiling, Bcl-xL priming; conditions: DHL-6 leukemia cell line, compared with Molm 13, FIG. 3
AHR cells = test: Mitochondrial (BH3) profiling, Bcl-xL priming; conditions: AHR leukemia cell line, FIG. 3
From the text: The Bcl-xL/Bim heterodimer (HSBXB) can be detected by flow cytometry using a method for intracellular staining with the HSBXB antibody. Three leukemia cell lines, AHR, DHL6 and MOLM 13 were chosen based on their having differing amounts of Bcl-xL, Bim priming as determined by mitochondrial profiling. Consequently, the response to the Bcl-xL restricted, the Bcl-xL/Bim dimer “priming”, is known to be present at different amounts. A high signal mediated by Hrk-BH3 peptide indicates the existence of Bcl-xL/Bim heterodimer.
The HSBXB signal was assessed by flow cytometry and compared to the Hrk-BH3 peptide signal in the BH3 profiling assay. Here, AHR, DHL6 and MOLM13 cells were incubated on ice for 3 hours, and then washed and incubated with HSBXB antibody or Bcl-xL antibody at 10 ug/ml for 20 minutes, and then washed and stained with secondary Alexa488-conjugated goat anti-mouse. Signals were corrected to IgG-2A isotype or secondary alone control. The Hrk-BH3 signal in the mitochondrial profiling of the three cell lines was plotted against normalized HSBXB FACS signal.

Chain of Bcl-xL/Bim heterodimer in SKBR3 breast cancer cells (Q07817 whole entry, one chain of several): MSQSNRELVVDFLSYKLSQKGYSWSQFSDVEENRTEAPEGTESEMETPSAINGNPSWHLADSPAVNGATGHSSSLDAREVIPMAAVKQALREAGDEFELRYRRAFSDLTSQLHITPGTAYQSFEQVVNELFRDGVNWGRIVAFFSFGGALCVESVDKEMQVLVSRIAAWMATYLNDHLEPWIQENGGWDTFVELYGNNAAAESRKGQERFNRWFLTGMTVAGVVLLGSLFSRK

Row | Compound | time window where the disruption can be detected prior to caspase mediated membrane disruption [1] [h] | percent heterodimer specific signal (ANTI-HSBXB detection) ([1]; various concentrations, 10 hours at 37° C., FIG. 2) | degree of Bcl-xL priming relative to positive control (Molm 13 cells) | degree of Bcl-xL priming relative to positive control (DHL-6 cells) | degree of Bcl-xL priming relative to positive control (AHR cells)
1 | CC1(C)CCC(c2ccc(Cl)cc2)=C(CN2CCN(c3ccc(C(=O)NS(=O)(=O)c4ccc(N[C@H](CCN5CCOCC5)CSc5ccccc5)c(S(=O)(=O)C(F)(F)F)c4)cc3)CC2)C1 [ABT-263] | 10 to 12 | decreasing the quantity of ANTI-HSBXB detection |  |  | 
2 | Hrk-BH3: BH3 peptide HRK, SSAAQLTAARLKALGDELHQ, SEQ ID NO 8; Bcl-xL restricted (listed as Homo sapiens) |  |  | less than 5% | slightly higher | above 60%
